The text below walks through data of patent publication US20110039879A1, “METHODS FOR INCREASING WHITE BLOOD CELLS” (FibroGen ,Inc., priority 2007, published 2011).

The structures appear in SMILES notation.

Common to all, as to type: in vivo, Swiss-Webster mice
For test [1], the system named is lymphocytes. Description: Lymphocytes by complete blood count on day 8, dosing day 1, 3, 5. As to conditions: mice, oral gavage, 6 mg/kg on day 1, day 3 and day 5, measured on day 8. Here is the method:
(§1) To examine the effect of compounds and methods of the present invention on increasing white blood cells, the following studies were performed. In one series of experiments, male Swiss-Webster mice were administered various compounds of the present invention via oral gavage using a ball-tipped gavage needle. […] Animals were dosed once daily for 3 or 4 days. Six hours after the final dosing, 200 μl blood samples were collected and total white blood cell, neutrophil, and lymphocyte levels were measured by complete blood count (CBC) using a CellDyn cell analyzer (Abbott Laboratories).
(§2) In another series of experiments, male Swiss-Webster mice were administered various compounds (see Table 7 and Table 8) of the present invention via oral gavage using a ball-tipped gavage needle. […] Total WBC, neutrophil, lymphocyte, and monocyte levels were measured in mice as described above on day 8 following administration of compound on day 1, day 3, and day 5.

Test [2] relates to monocytes. Description: Monocytes by complete blood count on day 8, dosing day 1, 3, 5. To be noted: mice, oral gavage, 6 mg/kg on day 1, day 3 and day 5, measured on day 8.
Test [3] has as its system total white blood cell (WBC). Description: Total white blood cells by complete blood count on day 8, dosing day 1, 3, 5. To be noted: mice, oral gavage, measured on day 8.
Test [4] relates to neutrophils. Description: Neutrophils by complete blood count on day 8, dosing day 1, 3, 5. As to conditions: mice, oral gavage, 6 mg/kg on day 1, day 3 and day 5, measured on day 8.
Test [5] has as its system total white blood cell (WBC). Description: Total white blood cells by complete blood count on day 8, dosing day 1, 3, 5. To be noted: Mus musculus, 192 h, mice, oral gavage, measured on day 8, read-out: Total WBC % Increase Over Control; for change in vivo at 100 mg/kg: 100 mg/kg on day 1, day 3 and day 5; for change in vivo at 200 mg/kg: 200 mg/kg on day 1, day 3 and day 5; for change in vivo at 20 mg/kg: 20 mg/kg on day 1, day 3 and day 5. How it is done: as §1, §2

Where [6] appears, read: Mus musculus, 192 h, 6 mg/kg on day 1, day 3 and day 5, read-out: Total WBC % Increase Over Control.
Setting [7] is: 6 mg/kg on day 1, day 3 and day 5.
[8] abbreviates: 100 mg/kg on day 1, day 3 and day 5.
Where [9] appears, read: 200 mg/kg on day 1, day 3 and day 5.
[10] abbreviates: 20 mg/kg on day 1, day 3 and day 5.
The mark [11] stands for this setting: 60 mg/kg on day 1, day 3 and day 5.

On to `COc1cccc(Oc2ccc3c(O)c(C(=O)NCC(=O)O)nc(C#N)c3c2)c1` [Compound BE, {[1-Cyano-4-hydroxy-7-(3-methoxy-phenoxy)-isoquinoline-3-carbonyl]-amino}-acetic acid], for which the change in vivo at 6 mg/kg stood at 40% in test [1] (Mus musculus, Lymphocyte, 192 h, read-out: Lymphocytes % Increase Over Control); 71% in test [2] (Mus musculus, Monocyte, 192 h, read-out: Monocytes % Increase Over Control); 39% in test [3] (setting [6]); 30% in test [4] (Mus musculus, Neutrophil, 192 h, read-out: Neutrophils % Increase Over Control). The Lymphocytes in test [1] is on record as 8.1 10^3 cells/μl. For the same molecule, the Monocytes in test [2] is listed as 0.3 10^3 cells/μl. Further, in test [3] (setting [7]), the “Total WBC” value is listed as 9.6 10^3 cells/μl. The Neutrophils in test [4] is listed as 1.0 10^3 cells/μl.

With `CC(C)Oc1ccc(Cn2cc(Cl)c3c(O)c(C(=O)NCC(=O)O)nc(C#N)c32)cc1` [Compound BC, {[3-Chloro-7-cyano-4-hydroxy-1-(4-isopropoxy-benzyl)-1H-pyrrolo[2,3-c]pyridine-5-carbonyl]-amino}-acetic acid], in test [5], the change in vivo at 100 mg/kg is 148%. In addition, the “Total WBC” value in test [3] (setting [8]) was 15.9 10^3 cells/μl.

As to `N#Cc1nc(C(=O)NCC(=O)O)c(O)c2c(Cl)c(Cl)n(Cc3ccc(-c4ccccc4)cc3)c12` [Compound AV, [(1-Biphenyl-4-ylmethyl-2,3-dichloro-7-cyano-4-hydroxy-1H-pyrrolo[2,3-c]pyridine-5-carbonyl)-amino]-acetic acid], the change in vivo at 100 mg/kg in test [5] was 137%. In addition, the “Total WBC” value in test [3] (setting [8]) is given as 15.2 10^3 cells/μl.

For the molecule `COc1ccc(Cn2cc(Br)c3c(O)c(C(=O)NCC(=O)O)nc(C#N)c32)cc1` [Compound AJ, {[3-Bromo-7-cyano-4-hydroxy-1-(4-methoxy-benzyl)-1H-pyrrolo[2,3-c]pyridine-5-carbonyl]-amino}-acetic acid], in test [5], the change in vivo at 200 mg/kg worked out at 237%. In addition, in test [3] (setting [9]), the “Total WBC” value was 21.5 10^3 cells/μl.

On to `N#Cc1nc(C(=O)NCC(=O)O)c(O)c2c(Oc3cccc(Cl)c3)cccc12` [Compound BB, {[5-(3-Chloro-phenoxy)-1-cyano-4-hydroxy-isoquinoline-3-carbonyl]-amino}-acetic acid], for which the change in vivo at 200 mg/kg in test [5] was found to be 227%. Further, the “Total WBC” value in test [3] (setting [9]) is listed as 20.1 10^3 cells/μl.

As for `N#Cc1nc(C(=O)NCC(=O)O)c(O)c2cc(C(F)(F)F)n(Cc3ccccc3F)c12` [Compound AQ, {[7-Cyano-1-(2-fluoro-benzyl)-4-hydroxy-2-trifluoromethyl-1H-pyrrolo[2,3-c]pyridine-5-carbonyl]-amino}-acetic acid], in test [5], the change in vivo at 20 mg/kg worked out at 56%. The “Total WBC” value in test [3] (setting [10]) is recorded as 9.6 10^3 cells/μl.

Take `N#Cc1nc(C(=O)NCC(=O)O)c(O)c2cccc(Oc3ccccc3)c12` [Compound AD, [(1-Cyano-4-hydroxy-8-phenoxy-isoquinoline-3-carbonyl)-amino]-acetic acid]: in test [5], the change in vivo at 200 mg/kg came to 10%. The “Total WBC” value in test [3] (setting [9]) is given as 7.6 10^3 cells/μl.

For the molecule `CC(C)Oc1ccc(Cn2c(Cl)c(Cl)c3c(O)c(C(=O)NCC(=O)O)nc(C#N)c32)cc1` [Compound AX, {[2,3-Dichloro-7-cyano-4-hydroxy-1-(4-isopropoxy-benzyl)-1H-pyrrolo[2,3-c]pyridine-5-carbonyl]-amino}-acetic acid], the change in vivo at 100 mg/kg in test [5] came to 81%. The “Total WBC” value in test [3] (setting [8]) is recorded as 12.8 10^3 cells/μl.

Consider `CC(C)Oc1ccc(CN2C=CC3C(O)=C(C(=O)NCC(=O)O)N=C(C#N)C32)cc1` (centres unmarked) [Compound AZ, {[7-Cyano-4-hydroxy-1-(4-isopropoxy-benzyl)-3a,7a-dihydro-1H-pyrrolo[2,3-c]pyridine-5-carbonyl]-amino}-acetic acid], for which, in test [5] (setting [11]), the change in vivo at 60 mg/kg came out at 79%. In test [3] (setting [11]), the “Total WBC” value is listed as 11.6 10^3 cells/μl.

`CC(C)Oc1ccc(Cn2c(Cl)c(Cl)c3c(O)c(C(=O)N[C@@H](C)C(=O)O)nc(C#N)c32)cc1` [Compound BD, (S)-2-{[2,3-Dichloro-7-cyano-4-hydroxy-1-(4-isopropoxy-benzyl)-1H-pyrrolo[2,3-c]pyridine-5-carbonyl]-amino}-propionic acid]: the change in vivo at 200 mg/kg in test [5] turned out to be 93%. For the same molecule, the “Total WBC” value in test [3] (setting [9]) is 14.1 10^3 cells/μl.

With `N#Cc1nc(C(=O)NCC(=O)O)c(O)c2c(Oc3ccccc3)cccc12` [Compound AH, [(1-Cyano-4-hydroxy-5-phenoxy-isoquinoline-3-carbonyl)-amino]-acetic acid], the change in vivo at 200 mg/kg in test [5] was 123%. Further, in test [3] (setting [9]), the “Total WBC” value is on record as 9.4 10^3 cells/μl.

Regarding `N#Cc1nc(C(=O)NCC(=O)O)c(O)c2cc(Oc3ccccc3)ccc12` [Compound AG, [(1-Cyano-4-hydroxy-6-phenoxy-isoquinoline-3-carbonyl)-amino]-acetic acid], the change in vivo at 20 mg/kg in test [5] was determined as 25%. Also, the “Total WBC” value in test [3] (setting [10]) is 7.6 10^3 cells/μl.

As for `N#Cc1nc(C(=O)NCC(=O)O)c(O)c2sccc12` [Compound AA, [(4-Cyano-7-hydroxy-thieno[3,2-c]pyridine-6-carbonyl)-amino]-acetic acid], the change in vivo at 2 mg/kg in test [3] (Mus musculus, 192 h, 2 mg/kg on day 1, day 3 and day 5, read-out: Total WBC % Increase Over Control) was determined as 20%. Further, the “Total WBC” value in test [3] (2 mg/kg on day 1, day 3 and day 5) was 7.1 10^3 cells/μl.

`CC(C)CCn1cc(Cl)c2c(O)c(C(=O)NCC(=O)O)nc(C#N)c21` [Compound AO, {[3-Chloro-7-cyano-4-hydroxy-1-(3-methyl-butyl)-1H-pyrrolo[2,3-c]pyridine-5-carbonyl]-amino}-acetic acid]: in test [5], the change in vivo at 100 mg/kg came out at 47%. Moreover, the “Total WBC” value in test [3] (setting [8]) is recorded as 10.5 10^3 cells/μl.

Take `O=C(O)CNC(=O)c1ncc2cc(Oc3ccc(F)c(Cl)c3)ccc2c1O` [Compound W, {[7-(3-Chloro-4-fluoro-phenoxy)-4-hydroxy-isoquinoline-3-carbonyl]-amino}-acetic acid]: the change in vivo at 200 mg/kg in test [5] was 80%. Moreover, the “Total WBC” value in test [3] (setting [9]) was 8.4 10^3 cells/μl.

Consider `COc1ccc(Cn2cc(Cl)c3c(O)c(C(=O)NCC(=O)O)nc(C#N)c32)cc1` [Compound AM, {[3-Chloro-7-cyano-4-hydroxy-1-(4-methoxy-benzyl)-1H-pyrrolo[2,3-c]pyridine-5-carbonyl]-amino}-acetic acid], for which, in test [5], the change in vivo at 200 mg/kg amounted to 264%. The “Total WBC” value in test [3] (setting [9]) is 23.3 10^3 cells/μl.

Turning to `COc1ccc(Cn2c(Cl)c(Cl)c3c(O)c(C(=O)NCC(=O)O)nc(C#N)c32)cc1` [Compound AK, {[2,3-Dichloro-7-cyano-4-hydroxy-1-(4-methoxy-benzyl)-1H-pyrrolo[2,3-c]pyridine-5-carbonyl]-amino}-acetic acid], in test [5], the change in vivo at 200 mg/kg was determined as 105%. Further, the “Total WBC” value in test [3] (setting [9]) is listed as 16.8 10^3 cells/μl.

Consider `N#Cc1nc(C(=O)NCC(=O)O)c(O)c2c(Cl)cn(Cc3ccccc3F)c12` [Compound AN, {[3-Chloro-7-cyano-1-(2-fluoro-benzyl)-4-hydroxy-1H-pyrrolo[2,3-c]pyridine-5-carbonyl]-amino}-acetic acid], for which, in test [5], the change in vivo at 200 mg/kg was 179%. In addition, the “Total WBC” value in test [3] (setting [9]) is recorded as 23.2 10^3 cells/μl.

On to `N#Cc1nc(C(=O)NCC(=O)O)c(O)c2cccc(Oc3ccc(F)cc3)c12` [Compound AF, {[1-Cyano-8-(4-fluoro-phenoxy)-4-hydroxy-isoquinoline-3-carbonyl]-amino}-acetic acid], for which, in test [5], the change in vivo at 200 mg/kg was 35%. Further, in test [3] (setting [9]), the “Total WBC” value is on record as 8.2 10^3 cells/μl.

Regarding `N#Cc1nc(C(=O)NCC(=O)O)c(O)c2c(Cl)c(Cl)n(Cc3ccc4ccccc4c3)c12` [Compound AP, [(2,3-Dichloro-7-cyano-4-hydroxy-1-naphthalen-2-ylmethyl-1H-pyrrolo[2,3-c]pyridine-5-carbonyl)-amino]-acetic acid], in test [5], the change in vivo at 100 mg/kg was 88%. Further, the “Total WBC” value in test [3] (setting [8]) was 10.8 10^3 cells/μl.

As for `O=C(O)CNC(=O)c1ncc2cc(Oc3ccc(F)cc3)ccc2c1O` [Compound U, {[7-(4-Fluoro-phenoxy)-4-hydroxy-isoquinoline-3-carbonyl]-amino}-acetic acid], in test [3] (setting [6]), the change in vivo at 6 mg/kg turned out to be 6%. Moreover, in test [3] (setting [7]), the “Total WBC” value was 8.3 10^3 cells/μl.

Consider `N#Cc1nc(C(=O)NCC(=O)O)c(O)c2ccn(Cc3ccccc3)c12` [Compound AR, [(1-Benzyl-7-cyano-4-hydroxy-1H-pyrrolo[2,3-c]pyridine-5-carbonyl)-amino]-acetic acid], for which, in test [5], the change in vivo at 100 mg/kg turned out to be 71%. Further, in test [3] (setting [8]), the “Total WBC” value is listed as 9.5 10^3 cells/μl.
